# According to patent publication US11427606B2, “Azithromycin derivatives containing a phosphonium ion as anticancer agents” (Rising Tide Foundation, priority 2017, dated 2022):
# Test system: MDA-231 cancer cells
# Assay: Inhibition of proliferation assay: cell confluence (IncuCyte imaging)
# Assay type: cell-based
# Conditions: compound at 10 uM; MDA-231 cells; IncuCyte images every 3 h over 4-5 d; relative confluence normalised to time zero
# Procedure, shortened: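 MDA-231 cancer cells from ATCC were grown in DMEM with 10% FBS, 2 mM Glutamax, 1 mM NEAA and 1 mM sodium pyruvate. An IncuCyte Live Cell Imaging microscope with a 10× objective imaged one field per well every 3 h for 4-5 d. Its built-in algorithm computed percent confluence as a proliferation surrogate, and values were normalised to each sample's time-zero value.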
row,Molecule,% Confluence
1,"CC[C@H]1OC(=O)[C@H](C)[C@@H](O[C@H]2C[C@@](C)(OC)[C@@H](O)[C@H](C)O2)[C@H](C)[C@@H](O[C@@H]2O[C@H](C)C[C@H](N(C)C)[C@H]2O)[C@](C)(O)C[C@@H](C)CN(C(=O)CCCCCCCCCCC[PH](c2ccccc2)(c2ccccc2)C(C)C)[C@H](C)[C@@H](O)[C@]1(C)O [Example 33, {12-[(2R,3S,4R,5R,8R,10R,11R,12S,13S,14R)-11-{[(2S,3R,4S,6R)-4-(dimethylamino)-3-hydroxy-6-methyloxan-2-yl]oxy}-2-ethyl-3,4,10-trihydroxy-13-{[(2R,4R,5S,6S)-5-hydroxy-4-methoxy-4,6-dimethyloxan-2-yl]oxy}-3,5,8,10,12,14-hexamethyl-15-oxo-1-oxa-6-azacyclopentadecan-6-yl]-12-oxododecyl}diphenyl(propan-2-yl)phosphonium chloride]",5.6%
2,"CC[C@H]1OC(=O)[C@H](C)[C@@H](O[C@H]2C[C@@](C)(OC)[C@@H](O)[C@H](C)O2)[C@H](C)[C@@H](O[C@@H]2O[C@H](C)C[C@H](N(C)C)[C@H]2O)[C@](C)(O)C[C@@H](C)CN(C(=O)CCCCCCCCCCC[PH](CCOC)(c2ccccc2)c2ccccc2)[C@H](C)[C@@H](O)[C@]1(C)O [Example 34, {12-[(2R,3S,4R,5R,8R,10R,11R,12S,13S,14R)-11-{[(2S,3R,4S,6R)-4-(dimethylamino)-3-hydroxy-6-methyloxan-2-yl]oxy}-2-ethyl-3,4,10-trihydroxy-13-{[(2R,4R,5S,6S)-5-hydroxy-4-methoxy-4,6-dimethyloxan-2-yl]oxy}-3,5,8,10,12,14-hexamethyl-15-oxo-1-oxa-6-azacyclopentadecan-6-yl]-12-oxododecyl}(2-methoxyethyl)diphenylphosphonium chloride]",5.4%
3,"CC[C@H]1OC(=O)[C@H](C)[C@@H](O[C@H]2C[C@@](C)(OC)[C@@H](O)[C@H](C)O2)[C@H](C)[C@@H](O[C@@H]2O[C@H](C)C[C@H](N(C)C)[C@H]2O)[C@](C)(O)C[C@@H](C)CN(C(=O)CCCCCCCCCCC[PH](c2ccccc2)(c2ccccc2)C2CCOCC2)[C@H](C)[C@@H](O)[C@]1(C)O [Example 35, {12-[(2R,3S,4R,5R,8R,10R,11R,12S,13S,14R)-11-{[(2S,3R,4S,6R)-4-(dimethylamino)-3-hydroxy-6-methyloxan-2-yl]oxy}-2-ethyl-3,4,10-trihydroxy-13-{[(2R,4R,5S,6S)-5-hydroxy-4-methoxy-4,6-dimethyloxan-2-yl]oxy}-3,5,8,10,12,14-hexamethyl-15-oxo-1-oxa-6-azacyclopentadecan-6-yl]-12-oxododecyl}(oxan-4-yl)diphenylphosphonium chloride]",97.2%
4,"CC[C@H]1OC(=O)[C@H](C)[C@@H](O[C@H]2C[C@@](C)(OC)[C@@H](O)[C@H](C)O2)[C@H](C)[C@@H](O[C@@H]2O[C@H](C)C[C@H](N(C)C)[C@H]2OC(C)=O)[C@](C)(O)C[C@@H](C)CN(C)[C@H](C)[C@@H](OC(=O)NCCCCCCCCCC[P+](C)(C)c2ccccc2)[C@]1(C)O.[Br-] [Example 38, (2S,3R,4S,6R)-2-{[(2R,3R,4R,5R,8R,10R,11R,12S,13S,14R)-4-[({10-[dimethyl(phenyl)phosphoniumyl]decyl}carbamoyl)oxy]-2-ethyl-3,10-dihydroxy-13-{[(2R,4R,5S,6S)-5-hydroxy-4-methoxy-4,6-dimethyloxan-2-yl]oxy}-3,5,6,8,10,12,14-heptamethyl-15-oxo-1-oxa-6-azacyclopentadecan-11-yl]oxy}-4-(dimethylamino)-6-methyloxan-3-yl acetate bromide]",135%
5,"tris(4-chlorophenyl)({8-[(2R,3S,4R,5R,8R,10R,11R,12S,13S,14R)-11-{[(2S,3R,4S,6R)-4-(dimethylamino)-3-hydroxy-6-methyloxan-2-yl]oxy}-2-ethyl-3,4,10-trihydroxy-13-{[(2R,4R,5S,6S)-5-hydroxy-4-methoxy-4,6-dimethyloxan-2-yl]oxy}-3,5,8,10,12,14-hexamethyl-15-oxo-1-oxa-6-azacyclopentadecan-6-yl]-8-oxooctyl})phosphoniumhexafluorophosphate(V) [Example 4]",87.7%
